Patent US20240199623A1 (ILDONG PHARMACEUTICAL CO., LTD., priority 2020, published 2024)
pEC50: −log10 of the molar value. In brackets after ≈: the same amount, converted by molar mass.

Assays:
[1] = Phosphate-buffered saline (PBS) solubility of compounds; assay type: physicochemical; details: aqueous buffer, thermodynamic from solid, PBS pH 7.5, 0.5 mg/mL, vortexed 90 min, filtered, LC-MS/MS, read-out: Solubility Range
Procedure: PBS solutions (pH 7.5) were prepared according to the following compositions and stored at 4° C. Test compounds were dissolved in PBS (pH 7.5) at 0.5 mg/mL and vortexed for 90 min. The PBS solution was sequentially filtered through a 0.45, 1.2, […] syringe filter. Concentration of test compounds were determined using LC-MS/MS with appropriate dilution of the samples.

human wild type-CFTR = human wild type-CFTR (Homo sapiens, UniProt P13569); assay: Cell-based YFP assay; set-up: expressed in transfected cells; host or cells: CHO-K1 (Chinese hamster ovary); details: CHO-K1 cells expressing human wild type-CFTR and YFP-H148Q/I152L; forskolin 20 μM = 100% activity; read-out: Cell-based YFP Assay (EC50) Concentration Range
How it was run: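 I⁻-driven YFP fluorescence quenching at 37 °C: 2 s baseline, addition of 140 mM iodide solution, then 14 s of readings at 0.4 s intervals. Cells were CHO-K1 expressing human wild-type CFTR plus YFP-H148Q/I152L. EC50 derived from averaged triplicates.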

Chain of human wild type-CFTR (P13569 whole entry): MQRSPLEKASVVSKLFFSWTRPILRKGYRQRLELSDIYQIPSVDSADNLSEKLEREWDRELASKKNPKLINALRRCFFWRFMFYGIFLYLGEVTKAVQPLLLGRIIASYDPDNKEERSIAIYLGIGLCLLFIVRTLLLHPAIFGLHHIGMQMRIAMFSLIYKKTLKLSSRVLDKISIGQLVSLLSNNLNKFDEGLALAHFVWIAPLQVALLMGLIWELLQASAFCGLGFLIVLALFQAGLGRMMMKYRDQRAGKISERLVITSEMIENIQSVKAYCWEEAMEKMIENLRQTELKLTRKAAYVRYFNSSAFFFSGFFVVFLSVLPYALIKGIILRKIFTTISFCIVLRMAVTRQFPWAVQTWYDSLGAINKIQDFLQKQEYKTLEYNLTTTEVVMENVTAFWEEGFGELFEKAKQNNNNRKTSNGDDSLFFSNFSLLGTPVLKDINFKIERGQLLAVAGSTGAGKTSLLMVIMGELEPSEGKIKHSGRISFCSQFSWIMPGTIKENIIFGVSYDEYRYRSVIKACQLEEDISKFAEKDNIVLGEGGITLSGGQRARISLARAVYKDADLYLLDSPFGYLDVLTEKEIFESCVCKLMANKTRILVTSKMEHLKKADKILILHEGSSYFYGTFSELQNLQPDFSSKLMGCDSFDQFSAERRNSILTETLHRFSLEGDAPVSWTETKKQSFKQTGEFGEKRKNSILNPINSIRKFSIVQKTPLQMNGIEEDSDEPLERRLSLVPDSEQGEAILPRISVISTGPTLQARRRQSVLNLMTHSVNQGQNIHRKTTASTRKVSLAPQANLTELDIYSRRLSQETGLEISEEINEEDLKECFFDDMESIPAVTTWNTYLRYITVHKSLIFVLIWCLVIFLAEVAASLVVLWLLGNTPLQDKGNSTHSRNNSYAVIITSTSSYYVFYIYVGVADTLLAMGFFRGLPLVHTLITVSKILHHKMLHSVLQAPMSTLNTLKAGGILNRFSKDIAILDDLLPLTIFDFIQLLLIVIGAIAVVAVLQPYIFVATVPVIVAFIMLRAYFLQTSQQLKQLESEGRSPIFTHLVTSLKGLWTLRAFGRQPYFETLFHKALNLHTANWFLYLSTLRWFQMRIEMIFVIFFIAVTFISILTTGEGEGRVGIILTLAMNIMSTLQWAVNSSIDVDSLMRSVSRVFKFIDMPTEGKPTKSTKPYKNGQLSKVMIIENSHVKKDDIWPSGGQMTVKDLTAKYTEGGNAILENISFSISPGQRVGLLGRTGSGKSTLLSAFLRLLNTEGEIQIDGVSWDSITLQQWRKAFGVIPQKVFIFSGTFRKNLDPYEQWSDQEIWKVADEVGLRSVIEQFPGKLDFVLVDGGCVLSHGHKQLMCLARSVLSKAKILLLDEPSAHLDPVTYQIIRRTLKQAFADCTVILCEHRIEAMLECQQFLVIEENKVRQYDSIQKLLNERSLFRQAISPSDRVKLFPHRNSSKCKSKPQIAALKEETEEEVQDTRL

Question: For `COC(=O)[C@@H](NC(=O)c1ccc(NC(=O)c2cc3nccc(-c4ccc(OC)c(OC)c4)n3n2)cc1)C(C)C` [Compound 58, methyl (4-(7-(3,4-dimethoxyphenyl)pyrazolo [1,5-a]pyrimidine-2-carboxamido)benzoyl)-L-valinate], which solubility at 90 min [1] is on record?
Answer: Its solubility at 90 min is under 0.1 µg/mL.

Question: What about the pEC50 (human wild type-CFTR) of the same compound?
Answer: Its pEC50 is over 6.70.

Question: Which solubility at 90 min [1] does the source give for `COc1ccc(-c2ccnc3cc(C(=O)Nc4ccc(C(=O)OCCCN5CCOCC5)cc4)nn23)cc1OC` [Compound 121, 3-morpholinopropyl 4-(7-(3,4-dimethoxyphenyl)pyrazolo [1,5-a]pyrimidine-2-carboxamido)benzoate] here?
Answer: Its solubility at 90 min is under 0.1 µg/mL.

Question: And the pEC50 (human wild type-CFTR)?
Answer: Its pEC50 is over 6.70.

Question: Which solubility at 90 min [1] does the source give for `COc1ccc(-c2ccnc3cc(C(=O)Nc4ccccc4)nn23)cc1OC` [Compound 1, 7-(3,4-dimethoxyphenyl)-N-phenylpyrazolo[1,5-a] pyrimidine-2-carboxamide] here?
Answer: Its solubility at 90 min is under 0.1 µg/mL.

Question: What about the pEC50 (human wild type-CFTR) of the same compound?
Answer: Its pEC50 is over 6.70.

Question: Which solubility at 90 min [1] does the source give for `COc1ccc(-c2ccnc3cc(C(=O)Nc4ccc(C(=O)N5CCN(C(=O)OC(C)(C)C)CC5)cc4)nn23)cc1OC` [Compound 51, tert-butyl 4-(4-(7-(3,4-dimethoxyphenyl)pyrazolo [1,5-a]pyrimidine-2-carboxamido)benzoyl) piperazine-1-carboxylate] here?
Answer: The solubility at 90 min was under 0.1 µg/mL.

Question: What about the pEC50 (human wild type-CFTR) of the same compound?
Answer: Its pEC50 is over 6.70.

Question: With `COc1ccc(-c2ccnc3cc(C(=O)Nc4ccc(NC(=O)[C@H](C)N)cc4)nn23)cc1OC` [Compound 284, (S)-N-(4-(2-amino-propanamido)phenyl)-7-(3,4-dimethoxyphenyl)pyrazolo [1,5-a]pyrimidine-2-carboxamide] as the compound, how does the solubility at 90 min [1] read?
Answer: Its solubility at 90 min is 0.1 to 10 µg/mL (≈ 0.217 to 21.7 µM).

Question: What about the pEC50 (human wild type-CFTR) of the same compound?
Answer: The pEC50 was over 6.70.

Question: Which results are given for `COc1ccc(-c2ccnc3cc(C(=O)N[C@H]4CC[C@H](C(=O)N5CCN(C(=O)OC(C)(C)C)CC5)CC4)nn23)cc1OC` [Compound 76, tert-butyl 4-((1R,4R)-4-(7-(3,4-dimethoxyphenyl)pyrazolo [1,5-a]pyrimidine-2-carboxamido)cyclohexane-1-carbonyl)piperazine-1-carboxylate]?
Answer: solubility at 90 min [1]: 0.1 to 10 µg/mL (≈ 0.169 to 16.9 µM); pEC50 (human wild type-CFTR): 5.70 to 6.70

Question: For `COc1ccc(-c2ccnc3cc(C(=O)Nc4cccc(C(=O)N5CCN(C(=O)OC(C)(C)C)CC5)c4)nn23)cc1OC` [Compound 56, tert-butyl 4-(3-(7-(3,4-dimethoxyphenyl)pyrazolo [1,5-a]pyrimidine-2-carboxamido)benzoyl) piperazine-1-carboxylate], which solubility at 90 min [1] is on record?
Answer: Its solubility at 90 min is under 0.1 µg/mL.

Question: What about the pEC50 (human wild type-CFTR) of the same compound?
Answer: Its pEC50 is over 6.70.

Question: Which solubility at 90 min [1] does the source give for `COc1ccc(-c2ccnc3cc(C(=O)N4CCC(NC(=O)OC(C)(C)C)CC4)nn23)cc1OC` [Compound 100, tert-butyl (1-(7-(3,4-dimethoxyphenyl)pyrazolo[1,5-a]pyrimidine-2-carbonyl)piperidin-4-yl)carbamate] here?
Answer: Its solubility at 90 min is 0.1 to 10 µg/mL (≈ 0.208 to 20.8 µM).

Question: For `COc1ccc(-c2ccnc3cc(C(=O)N[C@H]4CC[C@@H](C(=O)OC)CC4)nn23)cc1OC` [Compound 9, methyl (1S,4S)-4-(7-(3,4-dimethoxyphenyl)pyrazolo [1,5-a]pyrimidine-2-carboxamido)cyclohexane-1-carboxylate], which solubility at 90 min [1] is on record?
Answer: The solubility at 90 min was 0.1 to 10 µg/mL (≈ 0.228 to 22.8 µM).

Question: For `COc1ccc(-c2ccnc3cc(C(=O)N[C@H]4CC[C@H](C(=O)O)CC4)nn23)cc1OC` [Compound 21, (1R,4R)-4-(7-(3,4-dimethoxyphenyl)pyrazolo [1,5-a]pyrimidine-2-carboxamido)cyclohexane-1-carboxylic acid], which solubility at 90 min [1] is on record?
Answer: Its solubility at 90 min is over 10 µg/mL.

Question: For `COC(=O)c1cccc(NC(=O)c2cc3nccc(-c4ccc(OC)c(OC)c4)n3n2)c1` [Compound 8, methyl 3-(7-(3,4-dimethoxyphenyl)pyrazolo [1,5-a]pyrimidine-2-carboxamido)benzoate], which solubility at 90 min [1] is on record?
Answer: The solubility at 90 min was under 0.1 µg/mL.

Question: Which solubility at 90 min [1] does the source give for `COc1ccc(-c2ccnc3cc(C(=O)N[C@H]4CC[C@@H](C(=O)O)CC4)nn23)cc1OC` [Compound 19, (1S,4S)-4-(7-(3,4-dimethoxyphenyl)pyrazolo [1,5-a]pyrimidine-2-carboxamido)cyclohexane-1-carboxylic acid] here?
Answer: The solubility at 90 min was over 10 µg/mL.

Question: With `COc1ccc(-c2ccnc3cc(C(=O)N4CCN(C(=O)c5cccnc5)[C@@H](C)C4)nn23)cc1OC` [Compound 382, (S)-(7-(3,4-dimethoxy-phenyl)pyrazolo[1,5-a]pyrimidin-2-yl) (3-methyl-4-nicotinoylpiperazin-1-yl)methanone] as the compound, how does the pEC50 (human wild type-CFTR) read?
Answer: The pEC50 was over 6.70.

Question: With `COc1ccc(-c2ccnc3cc(C(=O)Nc4ccc(C(=O)N5CCN(C)CC5)nc4)nn23)cc1OC` [Compound 265, 7-(3,4-dimethoxyphenyl)-N-(6-(4-methylpiperazine-1-carbonyl)pyridin-3-yl)pyrazolo[1,5-a] pyrimidine-2-carboxamide] as the compound, how does the pEC50 (human wild type-CFTR) read?
Answer: Its pEC50 is at most 5.70.

Question: With `COc1ccc(-c2ccnc3cc(C(=O)Nc4ccc(C(=O)N[C@@H](C)C(=O)O)cc4)nn23)cc1OC` [Compound 44, (4-(7-(3,4-dimethoxyphenyl)pyrazolo[1,5-a]pyrimidine-2-carboxamido)benzoyl)-L-alanine] as the compound, how does the pEC50 (human wild type-CFTR) read?
Answer: The pEC50 was 5.70 to 6.70.

Question: With `COc1ccc(-c2ccnc3cc(C(=O)Nc4ccc(C(=O)N5CCN(c6ccccn6)CC5)cc4)nn23)cc1OC` [Compound 338, 7-(3,4-dimethoxyphenyl)-N-(4-(4-(pyridin-2-yl)piperazine-1-carbonyl)phenyl)pyrazolo[1,5-a]pyrimidine-2-carboxamide] as the compound, how does the pEC50 (human wild type-CFTR) read?
Answer: Its pEC50 is over 6.70.

Question: With `CCN1CCN(c2ccc(NC(=O)c3cc4nccc(-c5ccc(OC)c(OC)c5)n4n3)cc2)CC1` [Compound 270, 7-(3,4-dimethoxyphenyl)-N-(4-(4-ethylpiperazin-1-yl)phenyl)pyrazolo[1,5-a]pyrimidine-2-carboxamide] as the compound, how does the pEC50 (human wild type-CFTR) read?
Answer: Its pEC50 is over 6.70.

Question: With `COc1ccc(-c2ccnc3cc(C(=O)NN4CCN(C)CC4)nn23)cc1OC` [Compound 68, 7-(3,4-dimethoxyphenyl)-N-(4-methylpiperazin-1-yl) pyrazolo[1,5-a]pyrimidine-2-carboxamide] as the compound, how does the pEC50 (human wild type-CFTR) read?
Answer: Its pEC50 is at most 5.70.

Question: With `COc1ccc(-c2ccnc3cc(C(=O)NC45CC(C(N)=O)(C4)C5)nn23)cc1OC` [Compound 95, N-(3-carbamoylbicyclo [1.1.1]pentan-1-yl)-7-(3,4-dimethoxyphenyl) pyrazolo[1,5-a]pyrimidine-2-carboxamide] as the compound, how does the pEC50 (human wild type-CFTR) read?
Answer: Its pEC50 is at most 5.70.

Question: With `COCCOCOC(=O)c1ccc(NC(=O)c2cc3nccc(-c4ccc(OC)c(OC)c4)n3n2)cc1` [Compound 329, (2-methoxyethoxy)methyl 4-(7-(3,4-dimethoxyphenyl)pyrazolo [1,5-a]pyrimidine-2-carboxamido)benzoate] as the compound, how does the pEC50 (human wild type-CFTR) read?
Answer: The pEC50 was over 6.70.

Question: With `COc1ccc(-c2ccnc3cc(C(=O)N4C[C@H](C)N(C(=O)c5ccccc5)C[C@@H]4C)nn23)cc1OC` [Compound 366, ((2S,5S)-4-benzoyl-2,5-dimethylpiperazin-1-yl)(7-(3,4-dimethoxyphenyl)pyrazolo[1,5-a]pyrimidin-2-yl)methanone] as the compound, how does the pEC50 (human wild type-CFTR) read?
Answer: The pEC50 was over 6.70.

Question: With `COc1ccc(-c2ccnc3cc(NC(=O)C45CCC(N6CCOCC6)(CC4)CC5)nn23)cc1OC` [Compound 288, N-(7-(3,4-dimethoxyphenyl)pyrazolo[1,5-a]pyrimidin-2-yl)-4-morpholinobicyclo[2.2.2]octane-1-carboxamide] as the compound, how does the pEC50 (human wild type-CFTR) read?
Answer: The pEC50 was at most 5.70.

Question: With `CCOc1ccc(NC(=O)c2cc3nccc(-c4ccc(OC(F)(F)F)c(Cl)c4)n3n2)cc1` [Compound 298, 7-(3-chloro-4-(trifluoromethoxy)phenyl)-N-(4-ethoxyphenyl)pyrazolo [1,5-a]pyrimidine-2-carboxamide] as the compound, how does the pEC50 (human wild type-CFTR) read?
Answer: The pEC50 was at most 5.70.

Question: With `COC(=O)c1ccc(NC(=O)c2cc3nccc(-c4ccccc4)n3n2)cc1` [Compound 305, methyl 4-(7-phenylpyrazolo[1,5-a]pyrimidine-2-carboxamido)benzoate] as the compound, how does the pEC50 (human wild type-CFTR) read?
Answer: The pEC50 was at most 5.70.

Question: With `COc1ccc(-c2ccnc3cc(C(=O)Nc4ccc(C(=O)O)c(C)c4)nn23)cc1OC` [Compound 213, 4-(7-(3,4-dimethoxyphenyl)pyrazolo[1,5-a]pyrimidine-2-carboxamido)-2-methylbenzoic acid] as the compound, how does the pEC50 (human wild type-CFTR) read?
Answer: Its pEC50 is at most 5.70.

Question: With `COc1ccc(-c2ccnc3cc(C(=O)N4CC[C@@H](NC(=O)C5CCN(C)CC5)C4)nn23)cc1OC` [Compound 188, (R)-N-(1-(7-(3,4-dimethoxyphenyl)pyrazolo [1,5-a]pyrimidine-2-carbonyl)pyrrolidin-3-yl)-1-methylpiperidine-4-carboxamide] as the compound, how does the pEC50 (human wild type-CFTR) read?
Answer: The pEC50 was at most 5.70.

Question: With `COc1ccc(-c2ccnc3cc(C(=O)N4CC[C@@H](NC(=O)OC(C)(C)C)C4)nn23)cc1OC` [Compound 115, tert-butyl (R)-(1-(7-(3,4-dimethoxyphenyl)pyrazolo [1,5-a]pyrimidine-2-carbonyl)pyrrolidin-3-yl)carbamate] as the compound, how does the pEC50 (human wild type-CFTR) read?
Answer: Its pEC50 is 5.70 to 6.70.

Question: With `COc1ccc(-c2ccnc3cc(C(=O)Nc4ccc(C(=O)N5CCN(C)CC5)c(F)c4)nn23)cc1OC` [Compound 175, 7-(3,4-dimethoxyphenyl)-N-(3-fluoro-4-(4-methylpiperazine-1-carbonyl)phenyl)pyrazolo [1,5-a]pyrimidine-2-carboxamide] as the compound, how does the pEC50 (human wild type-CFTR) read?
Answer: The pEC50 was over 6.70.

Question: With `COc1ccc(-c2ccnc3cc(C(=O)Nc4ccc(C(=O)N5CCC[C@H]5C(=O)O)cc4)nn23)cc1OC` [Compound 50, (4-(7-(3,4-dimethoxyphenyl)pyrazolo[1,5-a]pyrimidine-2-carboxamido)benzoyl)-L-proline] as the compound, how does the pEC50 (human wild type-CFTR) read?
Answer: Its pEC50 is at most 5.70.

Question: With `COc1ccc(-c2ccnc3cc(C(=O)Nc4ccc(CN5CCN(C)CC5)cc4)nn23)cc1OC` [Compound 243, 7-(3,4-dimethoxyphenyl)-N-(4-((4-methylpiperazin-1-yl)methyl)phenyl)pyrazolo [1,5-a]pyrimidine-2-carboxamide] as the compound, how does the pEC50 (human wild type-CFTR) read?
Answer: The pEC50 was 5.70 to 6.70.

Question: With `COc1ccc(-c2ccnc3cc(C(=O)Nc4ccc(C(=O)NCC(=O)O)cc4)nn23)cc1OC` [Compound 30, (4-(7-(3,4-dimethoxyphenyl)pyrazolo[1,5-a]pyrimidine-2-carboxamido)benzoyl)glycine] as the compound, how does the pEC50 (human wild type-CFTR) read?
Answer: Its pEC50 is at most 5.70.
